Values joined by “and” are separate entries in the source; they are usually repeats but may differ in a detail not shown here. Equal entries are not always repeated.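 Compound exposure: 48 hours, 5 concentrations, 96-well plates. The concentration for 50% growth inhibition is given as GI50. TGI: concentration producing complete growth inhibition.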
What was measured:
Test in all cases: inhibition of tumour cell growth, NCI panel, 48 h
HCT-116 colon = tested on: HCT-116 colon
MCF7 breast = tested on: MCF7 breast
MDA-MB-435 = tested on: MDA-MB-435
MOLT-4 leukemia = tested on: MOLT-4 leukemia
NCI-H226 lung = tested on: NCI-H226 lung
NCI-H522 lung = tested on: NCI-H522 lung
SF-295 CNS = tested on: SF-295 CNS
OVCAR-3 ovarian = tested on: OVCAR-3 ovarian
UACC-257 melanoma = tested on: UACC-257 melanoma
UO-31 renal = tested on: UO-31 renal

SMILES | GI50 (HCT-116 colon) | TGI (HCT-116 colon) | GI50 (MCF7 breast) | TGI (MCF7 breast) | GI50 (MDA-MB-435) | TGI (MDA-MB-435) | GI50 (MOLT-4 leukemia) | TGI (MOLT-4 leukemia) | GI50 (NCI-H226 lung) | TGI (NCI-H226 lung) | GI50 (NCI-H522 lung) | TGI (NCI-H522 lung) | GI50 (SF-295 CNS) | TGI (SF-295 CNS) | TGI (OVCAR-3 ovarian) | TGI (UACC-257 melanoma) | TGI (UO-31 renal) | GI50 (OVCAR-3 ovarian) | GI50 (UACC-257 melanoma) | GI50 (UO-31 renal)
CC(=O)Oc1ccccc1C(=O)NCCC[Se]C#N | 1.87 µM | 5.03 µM | 2.32 µM | 11.7 µM | 2.19 µM | 5.16 µM | 2.46 µM | 8.53 µM | 2.06 µM | 5.62 µM | 1.62 µM | 3.5 µM | 1.89 µM | 3.67 µM |  |  |  |  |  | 
Cc1cc(Cl)ccc1N1C(=O)C(=O)C(c2nc3ccccc3o2)C(=O)C1=O |  | > 100 µM |  |  |  |  |  | > 100 µM |  | > 100 µM |  | > 100 µM |  | > 100 µM | > 100 µM | > 100 µM | > 100 µM |  |  | 
Cc1cccc(Cl)c1NC(=O)c1cccc([N+](=O)[O-])c1O |  | > 100 µM |  |  |  |  |  | > 100 µM |  | 95.9 µM |  | 50.4 µM |  | > 100 µM | 76.4 µM | > 100 µM | 59.5 µM |  |  | 
COc1cccc2c1C(=O)c1c(O)c3c(c(O)c1C2=O)C[C@@](O)(C(C)=O)C[C@@H]3OC1CC(O)C(O)C(C)O1 (stereo partly drawn) |  | 3.54 µM and 3.82 µM | 0.153 µM | > 94.4 µM |  | 27.7 µM |  | 0.523 µM and 0.137 µM |  | 4.77 µM and 1.58 µM |  | 9.44 µM and 7.38 µM |  |  | 23.6 µM |  | 10 µM |  |  | 
C[CH2][Ge]([CH2]C)([CH2]C)[O]C(=O)C([O][Ge]([CH2]C)([CH2]C)[CH2]C)c1ccccc1 (stereo not drawn) | 13.9 µM | 30.2 µM |  |  |  |  | 23.8 µM | > 100 µM | 25.7 µM | 88 µM | 11 µM | 27.3 µM | 14.5 µM | 41 µM | 37.3 µM | 58.4 µM | 28.7 µM | 16.2 µM | 15.2 µM | 13 µM
CC(=O)OCC1OC(n2c(=S)n(-c3ccccc3)c(=O)c3cc(Br)ccc32)C(OC(C)=O)C(OC(C)=O)C1OC(C)=O (stereo not drawn) | > 100 µM | > 100 µM |  |  |  |  |  | > 100 µM |  | > 100 µM |  | > 100 µM | 46.5 µM and > 100 µM | > 100 µM | > 100 µM | > 100 µM | > 100 µM |  |  | 
O=C1C(CO)=C[C@@H](O)[C@H]2O[C@@H]12 |  | > 100 µM |  | 44.9 µM |  | 78.6 µM |  | > 100 µM |  | > 100 µM |  | > 100 µM |  | > 100 µM | > 100 µM |  | > 100 µM |  |  | 
COc1ccccc1Nc1nc2ccccc2c2occc12 | 20.8 µM | > 50 µM | 15.9 µM | > 50 µM | 19.1 µM | > 50 µM |  |  |  |  | 12 µM | 29.7 µM | 20.1 µM | > 50 µM | > 50 µM | 35.7 µM | 24 µM | 20.2 µM | 14.3 µM | 14.7 µM
O=C([CH-]C(=O)c1ccccc1)c1ccccc1.[CH3-].[CH3-].[CH3-].[Sn+4] | 5.95 µM | 19.1 µM |  |  |  |  | 3.18 µM | 13.6 µM | 6.62 µM | 65.7 µM | 11.8 µM | 24.2 µM | 6.68 µM | 31.5 µM | 71.8 µM | 60.8 µM | 40.4 µM | 12.7 µM | 22.2 µM | 12 µM
Cc1cccc2cc3cccc(C(=O)NCCN(C)C)c3nc12 |  | 1.54 µM |  |  |  |  |  | 0.344 µM |  | 0.343 µM |  | 1.19 µM |  | 1.74 µM | 5.38 µM | 1.46 µM | 0.552 µM |  |  | 
NC1=NCC(c2ccccn2)C1c1ccc(F)cc1 (stereo not drawn) |  | > 100 µM |  |  |  |  |  | > 100 µM |  | > 100 µM |  | > 100 µM |  | > 100 µM | > 100 µM | > 100 µM | > 100 µM |  |  | 
CSC(=NC#N)S/C=C/C(=O)c1cccc2ccccc12 | 40 µM | > 100 µM | 30.9 µM | > 100 µM | 24.5 µM | 85.5 µM | 8.46 µM | > 100 µM |  |  | 28.5 µM | 81.4 µM | > 100 µM | > 100 µM | 48.2 µM | 47.2 µM | 73.5 µM | 18 µM | 21.3 µM | 26 µM
NCCn1cnc2nc(NC(=O)c3ccccc3)[nH]c(=O)c21 |  | > 100 µM |  |  |  |  |  | > 100 µM |  | > 100 µM |  |  |  | > 100 µM | > 100 µM | > 100 µM | > 100 µM |  |  | 
COc1cc(/C=C2\NC(=S)C3Cc4c(OC)c(C)c(OC)c(OC)c4C2N3C)c(OC)c(C)c1OC (stereo not drawn) |  | > 100 µM |  |  |  |  |  | > 100 µM |  | > 100 µM |  | 97.9 µM |  | > 100 µM | > 100 µM | > 100 µM | > 100 µM |  |  | 
COc1ccc(C2CC(c3cccc(OC)c3)=NN2C(=O)c2cc(OC)c(OC)c(OC)c2)cc1 (stereo not drawn) | 1.43 µM | > 100 µM | 0.367 µM | > 100 µM | 0.307 µM | 1.71 µM | 2.14 µM | > 100 µM |  | > 100 µM | 2.66 µM | > 22.1 µM | 0.654 µM | > 100 µM |  | > 100 µM | > 100 µM |  | 83.8 µM | 1.59 µM
Cc1nnc2n1N=C(c1ccc(-c3ccc([N+](=O)[O-])cc3)o1)CS2 |  | > 100 µM |  |  |  |  |  | > 100 µM |  | > 100 µM |  | > 100 µM |  | > 100 µM | > 100 µM | > 100 µM | > 100 µM |  |  | 
Oc1c(Cl)cc(CN(Cc2cc(Cl)c(O)c(Cl)c2)C2CCCCC2)cc1Cl |  | > 100 µM |  | > 100 µM |  | > 100 µM |  | > 100 µM |  |  |  | > 100 µM |  | > 100 µM | > 100 µM | > 100 µM | > 100 µM |  |  | 
CN(C)CCC(/C=C/c1ccccc1)=N\Nc1ccc(Cl)cc1 |  | 13.7 µM |  |  |  |  |  | 5.43 µM |  |  |  | 7.77 µM |  | 13.1 µM | 22.5 µM | 14.5 µM | 4.24 µM |  |  | 
COC(=O)[C@@H]1[C@H](O)[C@H](C)[C@H](O)[C@H](C)/C=C\C=C(C)C(=O)Nc2c(C)c(OC(C)=O)c3c(c2O)C(=O)C(C)=C2OCOC(=C23)C(C)=C[C@@](C)(O)[C@H](O)[C@@H](C)[C@H]1OC(C)=O |  | 48.6 µM |  | 65.3 µM |  |  |  | > 100 µM |  | > 100 µM |  |  |  | > 100 µM |  | 76.6 µM | > 100 µM |  |  | 

— PubChem BioAssay (NCI)
